pIC50: −log10 of the molar value.

The assay has as its target Dual specificity mitogen-activated protein kinase kinase 1 (Homo sapiens, UniProt Q02750). Nature of the assay: Inhibition of MEK1.

Sequence of Dual specificity mitogen-activated protein kinase kinase 1 (Q02750 whole entry): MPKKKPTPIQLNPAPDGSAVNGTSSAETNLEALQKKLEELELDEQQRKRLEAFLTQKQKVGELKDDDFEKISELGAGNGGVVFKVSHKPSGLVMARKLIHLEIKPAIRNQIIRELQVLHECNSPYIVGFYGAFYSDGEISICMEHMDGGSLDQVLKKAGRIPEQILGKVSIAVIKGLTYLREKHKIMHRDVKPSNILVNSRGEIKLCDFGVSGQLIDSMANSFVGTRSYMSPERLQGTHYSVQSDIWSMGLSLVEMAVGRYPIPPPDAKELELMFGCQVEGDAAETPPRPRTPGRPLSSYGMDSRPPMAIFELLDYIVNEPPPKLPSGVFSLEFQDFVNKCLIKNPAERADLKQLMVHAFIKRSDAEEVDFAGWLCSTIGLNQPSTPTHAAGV

Regarding `CC(Nc1snc(O)c1C#N)c1ccccc1` (configuration not stated), the pIC50 (commonly −log10 of the IC50, conventionally taken in molar units) is under 5.30. Consider `N#Cc1c(O)nsc1NCCc1cccs1`, for which the pIC50 was under 5.30.

`N#Cc1c(O)nsc1Nc1ccccc1` gave a negative logarithm of the IC50 (pIC50) of 5.15.

Take `COc1cc(Nc2snc(O)c2-c2nn[nH]n2)cc(OC)c1`: the pIC50 was under 5.70.

In the case of `COC(=O)c1cccc(Nc2s[nH]c(=O)c2C#N)c1`, the pIC50 was under 5.30. On to `COCCCNc1snc(O)c1C#N`, for which the pIC50 was under 5.30. The same measure for `N#Cc1ccc(Nc2s[nH]c(=O)c2C#N)cc1`: under 5.30; for `N#Cc1c(O)nsc1Nc1ccccc1C(F)(F)F`: under 5.30; for `COc1cccc(Nc2snc(O)c2C#N)c1`: under 5.30.

Turning to `N#Cc1c(O)nsc1NCCc1ccccc1`, the pIC50 was under 5.30. The same measure for `CC(C)Nc1snc(O)c1C#N`: under 5.30; for `N#Cc1c(NCC2CCCCC2)s[nH]c1=O`: under 5.30. Next, `Cc1ccc(Nc2snc(O)c2C(=N)NN2CCCCC2)cc1`: under 5.70.

`N#Cc1c(O)nsc1Nc1cccnc1` gave a pIC50 of under 5.30.

The compound `N#Cc1c(O)nsc1Nc1cccc([N+](=O)[O-])c1` had a negative logarithm of the IC50 (pIC50) of under 5.30. The same measure for `N#Cc1c(O)nsc1Nc1ccc([N+](=O)[O-])cc1`: under 5.30; for `N#Cc1c(O)nsc1NCCc1ccc(O)cc1`: under 5.30. The compound `COc1nsc(Nc2ccccc2)c1C#N` showed a negative logarithm of the IC50 (pIC50) of under 5.30. The same measure for `Cc1ccccc1Nc1snc(O)c1C#N`: under 5.30; for `Cc1cccc(Nc2s[nH]c(=O)c2C#N)c1`: under 5.30. Regarding `CCCCNc1snc(O)c1C#N`, the pIC50 is under 5.30. The same measure for `Cc1ccc(Nc2snc(O)c2/C(N)=N/O)cc1`: under 5.70. Next, `N#Cc1c(O)nsc1Nc1ccccc1[N+](=O)[O-]`: under 5.30.

Turning to `N#Cc1c(O)nsc1NCCCN1CCOCC1`, the pIC50 was under 5.30. Next, `N#Cc1c(O)nsc1N1CCCCC1`: under 5.30. The same measure for `COc1ccccc1Nc1snc(O)c1C#N`: under 5.30. Next, `COc1ccc(Nc2snc(O)c2C#N)cc1`: under 5.30; `CC(C)c1ccc(Sc2snc(O)c2C#N)cc1`: under 5.30; `N#Cc1c(O)nsc1Oc1ccc(Oc2ccccc2)cc1`: under 5.30. Consider `Cn1sc(Nc2ccccc2)c(C#N)c1=O`, for which the negative-log IC50 (pIC50) is under 5.30. Next, `N#Cc1c(O)nsc1Nc1ccc(Cl)cc1`: 6.39. The same measure for `Cc1ccc(Nc2snc(O)c2C#N)cc1`: under 5.30.

The values are drawn from ChEMBL document CHEMBL1145349, “Discovery of 3-hydroxy-4-carboxyalkylamidino-5-arylamino-isothiazoles as potent MEK1 inhibitors” (Bioorg Med Chem Lett, 2006).
